In patent EP4714953A1, “MELANOCORTIN 2-TYPE RECEPTOR ANTAGONIST” (Scohia Pharma, Inc., priority 2023, dated 2024):

Target: T1, human MC2R (Homo sapiens, UniProt Q01718)
T1 construct: host or cells: GeneBLAzer MC2R-CRE-bla CHO-K1 cells
Assay: Measurement of human MC2R inhibitory activity using intracellular cAMP concentration as an indicator
Assay type: cell-based
Conditions: test compound at 1 µM; GeneBLAzer MC2R-CRE-bla CHO-K1 cells; ACTH (Human 1-24) final concentration 3 pM; intracellular cAMP by HTRF; read-out: MC2R inhibition rate (% of inhibition)
Experimental: Experimental Example 1: Measurement of human MC2R inhibitory activity using intracellular cAMP concentration as an indicator
GeneBLAzer MC2R-CRE-bla CHO-K1 cells (Thermo Fisher Scientific) that had been cryopreserved in advance were thawed and suspended in a medium [Dulbecco's Modified Eagle Medium (Thermo Fisher Scientific) containing fetal bovine serum (10% (v/v), HyClone Laboratories), Non-Essential Amino Acids Solution (1/100 (w/w), Thermo Fisher Scientific), HEPES (25 mM, Thermo Fisher Scientific), Penicillin/Streptomycin (1/100 (w/w), Fujifilm Wako)]. After centrifuging the cell suspension, the supernatant was removed, the cells were suspended in D-PBS(-) (Fujifilm Wako), and the supernatant was removed again after centrifugation. The cells were resuspended in an assay buffer [Hank's Balanced Salt Solution (Thermo Fisher Scientific) containing HEPES pH 7.5 (10 mM, Thermo Fisher Scientific), fatty acid-free bovine serum albumin (0.01% (w/v), Sigma), IBMX (500 µM, Fujifilm Wako)] and added to a 384-well white plate (Greiner) at 1,500 cells/well. Then, the test compound prepared using the assay buffer was added, and after standing for 20 min, an assay buffer containing ACTH (Human 1-24) (Peptide Institute) was added (ACTH final concentration, 3 pM). After standing at room temperature for 30 min, the intracellular cAMP level was measured using cAMP Gs HiRange kit HTRF (PerkinElmer). The inhibition rate (%) of the compound against MC2R was calculated using the following formula. Inhibition rate (%) = […] [formula] • A: cAMP concentration calculated from wells containing 3 pM ACTH (1-24) • B: cAMP concentration calculated from wells without addition of 3 pM ACTH (1-24) • C: cAMP concentration calculated from wells containing 3 pM ACTH (1-24) and test compound at concentration determined in advance

T1 sequence (Q01718 whole entry): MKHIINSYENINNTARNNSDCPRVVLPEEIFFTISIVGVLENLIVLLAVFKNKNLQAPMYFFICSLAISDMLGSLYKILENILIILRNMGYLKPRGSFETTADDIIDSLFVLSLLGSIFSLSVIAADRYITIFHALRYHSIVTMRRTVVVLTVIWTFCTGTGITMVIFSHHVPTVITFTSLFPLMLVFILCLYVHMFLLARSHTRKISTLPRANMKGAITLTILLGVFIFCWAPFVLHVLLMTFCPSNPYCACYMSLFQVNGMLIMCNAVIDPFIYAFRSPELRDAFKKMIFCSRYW
T1 sequence (Q8TCY5 whole entry partner): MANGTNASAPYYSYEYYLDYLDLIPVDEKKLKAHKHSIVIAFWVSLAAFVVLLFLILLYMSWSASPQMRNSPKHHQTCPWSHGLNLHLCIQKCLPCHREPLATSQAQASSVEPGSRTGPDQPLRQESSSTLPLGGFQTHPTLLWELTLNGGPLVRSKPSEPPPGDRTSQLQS

SMILES | inhibition at 1 µM
CCOc1ncccc1-c1ccc(N2CCN3C(=O)N(c4ccc(Cl)cc4C(F)(F)F)CC3C2)c(C=O)n1 (centres unmarked) [Example 1, 3-[2-[4-chloro-2-(trifluoromethyl)phenyl]-3-oxo-5,6,8,8a-tetrahydro-1H-imidazo[1,5-a]pyrazin-7-yl]-6-(2-ethoxypyridin-3-yl)pyridine-2-carbaldehyde] | 100%
CCOc1ncccc1-c1ccc(N2CCN3C(=O)N(c4ccc(Cl)cc4C(F)(F)F)CC3C2)c(C(N)=O)n1 (centres unmarked) [Example 2, 3-[2-[4-chloro-2-(trifluoromethyl)phenyl]-3-oxo-5,6,8,8a-tetrahydro-1H-imidazo[1,5-a]pyrazin-7-yl]-6-(2-ethoxypyridin-3-yl)pyridine-2-carboxamide] | 99%
CCOc1ncccc1-c1ccc(N2CCN3C(=O)N(C4(C(F)(F)F)CCCC4)CC3C2)c(C(N)=O)n1 (centres unmarked) [Example 3, 6-(2-ethoxypyridin-3-yl)-3-[3-oxo-2-[1-(trifluoromethyl)cyclopentyl]-5,6,8,8a-tetrahydro-1H-imidazo[1,5-a]pyrazin-7-yl]pyridine-2-carboxamide] | 81%
CCOc1ncccc1-c1ccc(N2CCN3C(=O)N(c4ccc(Cl)cc4C(F)(F)F)CC3C2)c(C(=O)NCCN(C)C)n1 (centres unmarked) [Example 4, 3-[2-[4-chloro-2-(trifluoromethyl)phenyl]-3-oxo-5,6,8,8a-tetrahydro-1H-imidazo[1,5-a]pyrazin-7-yl]-N-[2-(dimethylamino)ethyl]-6-(2-ethoxypyridin-3-yl)pyridine-2-carboxamide] | 100%
CCOc1ncccc1-c1ccc(N2CCN3C(=O)N(c4ccc(Cl)cc4C(F)(F)F)C[C@@H]3C2)c(C=O)n1 [Example 5, 3-[(8aS)-2-[4-chloro-2-(trifluoromethyl)phenyl]-3-oxo-5,6,8,8a-tetrahydro-1H-imidazo[1,5-a]pyrazin-7-yl]-6-(2-ethoxypyridin-3-yl)pyridine-2-carbaldehyde] | 100%
CCOc1ncccc1-c1ccc(N2CCN3C(=O)N(c4ccc(Cl)cc4C(F)(F)F)C[C@@H]3C2)c(C(=O)NCCN(C)C)n1 [Example 6, 3-[(8aS)-2-[4-chloro-2-(trifluoromethyl)phenyl]-3-oxo-5,6,8,8a-tetrahydro-1H-imidazo[1,5-a]pyrazin-7-yl]-N-[2-(dimethylamino)ethyl]-6-(2-ethoxypyridin-3-yl)pyridine-2-carboxamide] | 100%
CCOc1ncccc1-c1ccc(N2CCN3C(=O)N(c4ccc(Cl)cc4C(F)(F)F)C[C@H]3C2)c(C=O)n1 [Example 7, 3-[(8aR)-2-[4-chloro-2-(trifluoromethyl)phenyl]-3-oxo-5,6,8,8a-tetrahydro-1H-imidazo[1,5-a]pyrazin-7-yl]-6-(2-ethoxypyridin-3-yl)pyridine-2-carbaldehyde] | 91%
CCOc1ncccc1-c1ccc(N2CCN3C(=O)N(c4ccc(Cl)cc4C(F)(F)F)C[C@H]3C2)c(C(=O)NCCN(C)C)n1 [Example 8, 3-[(8aR)-2-[4-chloro-2-(trifluoromethyl)phenyl]-3-oxo-5,6,8,8a-tetrahydro-1H-imidazo[1,5-a]pyrazin-7-yl]-N-[2-(dimethylamino)ethyl]-6-(2-ethoxypyridin-3-yl)pyridine-2-carboxamide] | 90%
CCOc1ncccc1-c1ccc(N2CCN3C(=O)N(c4ccc(Cl)cc4C(F)(F)F)CC3(C)C2)c(C=O)n1 (centres unmarked) [Example 9, 3-[2-[4-chloro-2-(trifluoromethyl)phenyl]-8a-methyl-3-oxo-1,5,6,8-tetrahydroimidazo[1,5-a]pyrazin-7-yl]-6-(2-ethoxypyridin-3-yl)pyridine-2-carbaldehyde] | 99%
CCOc1ncccc1-c1ccc(N2C[C@H]3CN(c4ccc(Cl)cc4C(F)(F)F)C(=O)N3C[C@H]2CC)c(C=O)n1 [Example 10, 3-[(6R,8aS)-2-[4-chloro-2-(trifluoromethyl)phenyl]-6-ethyl-3-oxo-5,6,8,8a-tetrahydro-1H-imidazo[1,5-a]pyrazin-7-yl]-6-(2-ethoxypyridin-3-yl)pyridine-2-carbaldehyde] | 100%
CCOc1ncccc1-c1ccc(N2CCN3C(=O)N(c4ccc(Cl)cc4C(F)(F)F)C[C@@H]3C2)c(C(=O)NCC2CCOCC2)n1 [Example 11, 3-[(8aS)-2-[4-chloro-2-(trifluoromethyl)phenyl]-3-oxo-5,6,8,8a-tetrahydro-1H-imidazo[1,5-a]pyrazin-7-yl]-6-(2-ethoxypyridin-3-yl)-N-(oxan-4-ylmethyl)pyridine-2-carboxamide] | 97%
CCOc1ncccc1-c1ccc(N2CCN3C(=O)N(c4ccc(Cl)cc4C(F)(F)F)C[C@@H]3C2)c(C(=O)NCCOC)n1 [Example 12, 3-[(8aS)-2-[4-chloro-2-(trifluoromethyl)phenyl]-3-oxo-5,6,8,8a-tetrahydro-1H-imidazo[1,5-a]pyrazin-7-yl]-6-(2-ethoxypyridin-3-yl)-N-(2-methoxyethyl)pyridine-2-carboxamide] | 100%
CCOc1ncccc1-c1ccc(N2CCN3C(=O)N(c4ccc(Cl)cc4C(F)(F)F)C[C@@H]3C2)c(C(=O)NCCC2CCOCC2)n1 [Example 13, 3-[(8aS)-2-[4-chloro-2-(trifluoromethyl)phenyl]-3-oxo-5,6,8,8a-tetrahydro-1H-imidazo[1,5-a]pyrazin-7-yl]-6-(2-ethoxypyridin-3-yl)-N-[2-(oxan-4-yl)ethyl]pyridine-2-carboxamide] | 99%
CCOc1ncccc1-c1ccc(N2CCN3C(=O)N(c4ccc(Cl)cc4C(F)(F)F)C[C@@H]3C2)c(C(=O)NCCCc2ccccn2)n1 [Example 14, 3-[(8aS)-2-[4-chloro-2-(trifluoromethyl)phenyl]-3-oxo-5,6,8,8a-tetrahydro-1H-imidazo[1,5-a]pyrazin-7-yl]-6-(2-ethoxypyridin-3-yl)-N-(3-pyridin-2-ylpropyl)pyridine-2-carboxamide] | 100%
CCOc1ncccc1-c1ccc(N2CCN3C(=O)N(c4ccc(Cl)cc4C(F)(F)F)C[C@@H]3C2)c(C(=O)NCC2(O)COC2)n1 [Example 15, 3-[(8aS)-2-[4-chloro-2-(trifluoromethyl)phenyl]-3-oxo-5,6,8,8a-tetrahydro-1H-imidazo[1,5-a]pyrazin-7-yl]-6-(2-ethoxypyridin-3-yl)-N-[(3-hydroxyoxetan-3-yl)methyl]pyridine-2-carboxamide] | 100%
CCOc1ncccc1-c1ccc(N2CCN3C(=O)N(c4ccc(Cl)cc4C(F)(F)F)C[C@@H]3C2)c(C(=O)NCC2(O)CC2)n1 [Example 16, 3-[(8aS)-2-[4-chloro-2-(trifluoromethyl)phenyl]-3-oxo-5,6,8,8a-tetrahydro-1H-imidazo[1,5-a]pyrazin-7-yl]-6-(2-ethoxypyridin-3-yl)-N-[(1-hydroxycyclopropyl)methyl]pyridine-2-carboxamide] | 100%
CCOc1ncccc1-c1ccc(N2CCN3C(=O)N(c4ccc(Cl)cc4C(F)(F)F)C[C@@H]3C2)c(C(=O)NC2CCN(C(=O)OC(C)(C)C)C2)n1 (stereo partly drawn) [Example 17, tert-butyl 3-[[3-[(8aS)-2-[4-chloro-2-(trifluoromethyl)phenyl]-3-oxo-5,6,8,8a-tetrahydro-1H-imidazo[1,5-a]pyrazin-7-yl]-6-(2-ethoxypyridin-3-yl)pyridine-2-carbonyl]amino]pyrrolidine-1-carboxylate] | 91%
CCOc1ncccc1-c1ccc(N2CCN3C(=O)N(c4ccc(Cl)cc4C(F)(F)F)C[C@@H]3C2)c(C(=O)NCCS(C)(=O)=O)n1 [Example 18, 3-[(8aS)-2-[4-chloro-2-(trifluoromethyl)phenyl]-3-oxo-5,6,8,8a-tetrahydro-1H-imidazo[1,5-a]pyrazin-7-yl]-6-(2-ethoxypyridin-3-yl)-N-(2-methylsulfonylethyl)pyridine-2-carboxamide] | 100%
CCOc1ncccc1-c1ccc(N2CCN3C(=O)N(c4ccc(Cl)cc4C(F)(F)F)C[C@@H]3C2)c(C(=O)NCCc2ccccn2)n1 [Example 19, 3-[(8aS)-2-[4-chloro-2-(trifluoromethyl)phenyl]-3-oxo-5,6,8,8a-tetrahydro-1H-imidazo[1,5-a]pyrazin-7-yl]-6-(2-ethoxypyridin-3-yl)-N-(2-pyridin-2-ylethyl)pyridine-2-carboxamide] | 100%
CCOc1ncccc1-c1ccc(N2CCN3C(=O)N(c4ccc(Cl)cc4C(F)(F)F)C[C@@H]3C2)c(C(=O)NC2CCOC2)n1 (stereo partly drawn) [Example 20, 3-[(8aS)-2-[4-chloro-2-(trifluoromethyl)phenyl]-3-oxo-5,6,8,8a-tetrahydro-1H-imidazo[1,5-a]pyrazin-7-yl]-6-(2-ethoxypyridin-3-yl)-N-(oxolan-3-yl)pyridine-2-carboxamide] | 99%
